Activity calls are given as the source filed them. The rule behind the calls is not given here.

From PubChem BioAssay AID1259407 (Chemical Carcinogenesis Research Information System (CCRIS), 2018) come the findings set out here.

The test system of the data set is CCRIS mutagenicity, Ames/micronucleus/aberration tests. As to the kind of experiment: CCRIS mutagenicity studies.

Take `COc1cc(-c2ccc(N/N=C3/C(=O)c4c(N)cc(S(=O)(=O)O)cc4C=C3S(=O)(=O)O)c(OC)c2)ccc1N/N=C1/C(=O)c2c(N)cc(S(=O)(=O)O)cc2C=C1S(=O)(=O)O`: the mutagenic call reads like this: (End Point: IN VITRO CHROMOSOMAL ABERRATIONS, Test System: CHINESE HAMSTER OVARY CELLS, Metabolic Activation: NONE) “inactive; negative”; (End Point: IN VITRO CHROMOSOMAL ABERRATIONS, Test System: CHINESE HAMSTER OVARY CELLS, Metabolic Activation: RAT, LIVER, S-9, AROCLOR 1254) “inactive; negative”; (Test System: AMES SALMONELLA TYPHIMURIUM, Strain/Indicator: SV50, Metabolic Activation: HAMSTER, LIVER, S-9, Method: PREINCUBATION (PRIVAL METHOD)) “active; positive”; (Test System: AMES SALMONELLA TYPHIMURIUM, Strain/Indicator: SV50, Metabolic Activation: RAT, LIVER, S-9, AROCLOR 1254, Method: PREINCUBATION (PRIVAL METHOD)) “active; positive”; (Test System: AMES SALMONELLA TYPHIMURIUM, Strain/Indicator: TA98, Metabolic Activation: HAMSTER, LIVER, S-9, AROCLOR 1254 (10%), Method: PREINCUBATION) “inactive; negative”; (Test System: AMES SALMONELLA TYPHIMURIUM, Strain/Indicator: TA98, Metabolic Activation: HAMSTER, LIVER, S-9, Method: PREINCUBATION (PRIVAL METHOD)) “active; positive”. Moreover, the mutagenic call runs as follows: (Test System: AMES SALMONELLA TYPHIMURIUM, Strain/Indicator: TA98, Metabolic Activation: NONE, Method: PREINCUBATION) “inactive; negative”; (Test System: AMES SALMONELLA TYPHIMURIUM, Strain/Indicator: TA98, Metabolic Activation: RAT, LIVER, S-9, AROCLOR 1254 (10%), Method: PREINCUBATION) “inactive; negative”; (Test System: AMES SALMONELLA TYPHIMURIUM, Strain/Indicator: TA98, Metabolic Activation: RAT, LIVER, S-9, AROCLOR 1254, Method: PREINCUBATION (PRIVAL METHOD)) “active; positive”; (Test System: AMES SALMONELLA TYPHIMURIUM, Strain/Indicator: TA100, Metabolic Activation: HAMSTER, LIVER, S-9, AROCLOR 1254 (10%), Method: PREINCUBATION) “inactive; negative”; (Test System: AMES SALMONELLA TYPHIMURIUM, Strain/Indicator: TA100, Metabolic Activation: NONE, Method: PREINCUBATION) “inactive; negative”; (Test System: AMES SALMONELLA TYPHIMURIUM, Strain/Indicator: TA100, Metabolic Activation: RAT, LIVER, S-9, AROCLOR 1254 (10%), Method: PREINCUBATION) “inactive; negative”. Further, the mutagenic call (Test System: AMES SALMONELLA TYPHIMURIUM, Strain/Indicator: TA1535, Metabolic Activation: HAMSTER, LIVER, S-9, AROCLOR 1254 (10%), Method: PREINCUBATION) was “inactive; negative”; the mutagenic call (Test System: AMES SALMONELLA TYPHIMURIUM, Strain/Indicator: TA1535, Metabolic Activation: NONE, Method: PREINCUBATION) is “inactive; negative”; the mutagenic call (Test System: AMES SALMONELLA TYPHIMURIUM, Strain/Indicator: TA1535, Metabolic Activation: RAT, LIVER, S-9, AROCLOR 1254 (10%), Method: PREINCUBATION) was “inactive; negative”; the mutagenic call (Test System: AMES SALMONELLA TYPHIMURIUM, Strain/Indicator: TA1537, Metabolic Activation: HAMSTER, LIVER, S-9, AROCLOR 1254 (10%), Method: PREINCUBATION) was “inactive; negative”; the mutagenic call (Test System: AMES SALMONELLA TYPHIMURIUM, Strain/Indicator: TA1537, Metabolic Activation: NONE, Method: PREINCUBATION) was “inactive; negative”; the mutagenic call (Test System: AMES SALMONELLA TYPHIMURIUM, Strain/Indicator: TA1537, Metabolic Activation: RAT, LIVER, S-9, AROCLOR 1254 (10%), Method: PREINCUBATION) was “inactive; negative”. For the same compound, the mutagenic call is, setting by setting: (Test System: AMES SALMONELLA TYPHIMURIUM, Strain/Indicator: TA1538, Metabolic Activation: FLAVIN MONONUCLEOTIDE REDUCTION, HAMSTER, LIVER, S-9, Method: PREINCUBATION) “active; positive”; (Test System: AMES SALMONELLA TYPHIMURIUM, Strain/Indicator: TA1538, Metabolic Activation: RAT, CECAL BACTERIAL REDUCTION, S-9, AROCLOR 1254, Method: PREINCUBATION) “active; positive”; (Test System: AMES SALMONELLA TYPHIMURIUM, Strain/Indicator: TA1538, Metabolic Activation: RAT, LIVER, S-9, AROCLOR 1254, Method: PREINCUBATION) “active; positive”; (Test System: AMES SALMONELLA TYPHIMURIUM, Strain/Indicator: TA1538, Metabolic Activation: RAT, LIVER, S-9, AROCLOR 1254, Method: STANDARD PLATE) “active; positive”.

Take `[O][Cl+][O-]`: for the setting “End Point: IN VIVO MICRONUCLEUS, Test System: BONE MARROW POLYCHROMATIC ERYTHROCYTES, Species: MOUSE, Strain/Sex: DDY/MALE, Route: IP”, the mutagenic call is “active; positive”.
